Reference: US20210038587A1, “METHODS AND COMPOSITIONS FOR TREATING NON-ERK MAPK PATHWAY INHIBITOR-RESISTANT CANCERS” (BIOMED VALLEY DISCOVERIES, INC., priority 2013, published 2021)

Experiments:
[1] = system: HCT116; assay: Reverse Phase Protein Analysis (RPPA); type: cell-based, human; conditions: % change from DMSO (matched cell line)
Experimental: (§1) Control wells were treated with DMSO at 0.1% (v/v) for 6 hours prior to cell lysate generation. Samples were then analyzed using reverse-phase protein microarray technology (Theranostics Health).
(§2) Cell lines with common alterations in BRAF and RAS were assayed: BRAF^V600E mutant lines A375, Colo205, and HT29; KRAS^G12C-mutant cell line MIAPACa-2; KRAS^G13D-mutant cell line HCT116; and AN3Ca with atypical HRAS^F82L mutation. Changes in protein levels are shown as a percentage change from dimethyl sulfoxide (DMSO)-treated parental control (FIG. 32A and Table 23).

[2] = system: A375; assay: Reverse Phase Protein Analysis (RPPA); type: cell-based, human; conditions: % change from DMSO (matched cell line)
Experimental: as §1, §2

[3] = system: RKO MEK1 (Q56P/+) Clone 2; assay: Single agent proliferation assay (CellTiter-Glo, 96 h); type: cell-based; conditions: RKO MEK1 Q56P/+ Cl.2
Experimental: (§3) For assessment of drug sensitivity in cell-line models of acquired resistance, drug sensitivity of dose-escalated A375 cells and isogenic RKO cells was assessed in 96-hour proliferation assays. […] For the A375 assays Alamar blue (ThermoFisher) 10% (v/v) was added and incubated for 4 h, and fluorescent product was then detected using a BMG FLUOstar.
(§4) RKO MEK1 Q56P Isogenic cells were produced by Horizon Discovery (Cambridge, UK; #HD 106-019) using a recombinant AAV-mediated gene targeting strategy. Briefly, rAAV virus was generated following transfection of the appropriate targeting vector and helper vectors in HEK293T cells, purified using an AAV purification kit (Virapur, San Diego, USA) and titrated using qPCR. Parental homozygous RKO cells (homozygous wild type for MEK1) were then infected with rAAV virus and clones that had integrated the selection cassette were identified by G418 selection and expanded. Correctly targeted clones that were heterozygous for knock-in of the MEK1 Q56P point mutation into a single allele were identified by PCR and sequencing.
(§5) Compounds were prepared from DMSO stocks to give the desired final concentrations. The final DMSO concentration was constant at 0.1%. […] CellTiter-Glo® reagent (Promega, Madison, Wis.) was added according to manufacturer's instructions and luminescence detected using the BMG FLUOstar plate reader (BMG Labtech, Ortenberg, Germany).

[4] = system: RKO MEK1 (Q56P/+) Clone 1; assay: as above; type: cell-based; conditions: RKO MEK1 Q56P/+ Cl.1
Experimental: as §3, §4, §5

[5] = system: RKO Parental; assay: as above; type: cell-based
Experimental: as §3, §5

O=C(Nc1ccc2[nH]nc(-c3ccncc3)c2c1)[C@@H]1CCN(CC(=O)N2CCN(c3ccc(-c4ncccn4)cc3)CC2)C1 [SCH772984]
Avg (4ebp1 T70) [1]: 5.6% | Avg (Akt S473) [1]: −8.76% | Avg (Akt) [1]: −9.86% | Avg (Bad S136) [1]: −10.55% | Avg (Bad S155) [1]: −22.96% | Avg (Bak) [1]: −4.66% | Avg (Bax) [1]: −13.86% | Avg (Bcl 2) [1]: −10.58% | Avg (Bcl2 S70) [1]: −18.34% | Avg (Bcl 2 T56) [1]: −15.89% | Avg (Bim) [1]: 1.95% | Avg (CREB S133) [1]: −24.18% | Avg (Caspase 3 CL D175) [1]: −4.63% | Avg (Caspase 7 Cl D198) [1]: −16.35% | Avg (Chk1) [1]: −5.58% | Avg (Chk1 S345) [1]: −18.51% | Avg (Cyclin D1) [1]: −73.21% | Avg (ERK 1 2) [1]: −10.22% | Avg (ERK 1 2 T202 Y204) [1]: −75.21% | Avg (MAK1 S360) [1]: −15.32% | Avg (Mcl1) [1]: −6.55% | Avg (Raptor S792) [1]: −18.18% | Avg (Raptor) [1]: −9.66% | Avg (Rictor) [1]: −18.5% | Avg (Stat1) [1]: −10.74% | Avg (Stat3) [1]: −7.67% | Avg (bad S112) [1]: −31.29% | Avg (c Fos) [1]: −15.27% | Avg (c Myc) [1]: −12.86% | Avg (mTOR S2448) [1]: −16.05% | Avg (mTOR S2481) [1]: −22.53% | Avg (mTOR) [1]: −12.56% | Avg (p70 S6 Kinase) [1]: −14.12% | Avg (p90 RSK S380) [1]: −33.7% | Avg(S6 Ribo Prot S235 236) [1]: −93.86% | Avg(S6 Ribo Prot S240 244) [1]: −91.07% | Avg(Tuberin TSC2 Y1571) [1]: −16.17% | Avg(p70 S6 Kinase S371 S394) [1]: −12.3% | Avg(p70 S6 Kinase T389 T412) [1]: −24.63% | Avg (4ebp1 T70) [2]: −31.75% | Avg (Akt S473) [2]: 58.13% | Avg (Akt) [2]: −23.26% | Avg (Bad S136) [2]: 5.32% | Avg (Bad S155) [2]: −13.86% | Avg (Bak) [2]: −2.37% | Avg (Bax) [2]: −17.32% | Avg (Bcl 2) [2]: −18.53% | Avg (Bcl2 S70) [2]: −12.91% | Avg (Bcl 2 T56) [2]: −19.55% | Avg (Bim) [2]: 17.52% | Avg (CREB S133) [2]: −1.55% | Avg (Caspase 3 CL D175) [2]: −9.87% | Avg (Caspase 7 Cl D198) [2]: −6% | Avg (Chk1) [2]: 2.83% | Avg (Chk1 S345) [2]: −10.59% | Avg (Cyclin D1) [2]: −84.05% | Avg (ERK 1 2) [2]: −21.65% | Avg (ERK 1 2 T202 Y204) [2]: −90.63% | Avg (MAK1 S360) [2]: 0.97% | Avg (Mcl1) [2]: 2.11% | Avg (Raptor S792) [2]: −6.89% | Avg (Raptor) [2]: −11.66% | Avg (Rictor) [2]: −22.13% | Avg (Stat1) [2]: −6.01% | Avg (Stat3) [2]: −1.42% | Avg (bad S112) [2]: −71.44% | Avg (c Fos) [2]: −12.51% | Avg (c Myc) [2]: 1.86% | Avg (mTOR S2448) [2]: −26.17% | Avg (mTOR S2481) [2]: −15.82% | Avg (mTOR) [2]: −5.18% | Avg (p70 S6 Kinase) [2]: −17.66% | Avg (p90 RSK S380) [2]: −72.44% | Avg(S6 Ribo Prot S235 236) [2]: −94.71% | Avg(S6 Ribo Prot S240 244) [2]: −91.78% | Avg(Tuberin TSC2 Y1571) [2]: −13.7% | Avg(p70 S6 Kinase S371 S394) [2]: −28.72% | Avg(p70 S6 Kinase T389 T412) [2]: −42.73% | IC50 [3]: 120 nM | IC50 [4]: 140 nM | IC50 [5]: 40 nM
